Assays:
Type in all cases: in vivo
[1] = test system: barnyardgrass (Echinochloa crusgalli, ECHCG); assay: General herbicidal evaluation, preemergence; conditions: 16 days after treatment
Excerpt: (§1) Applications of methylidene mevalonate were made either to the foliage (postemergence) or soil (preemergence). Seeds of sunflower (Helianthus annus, HELAN), morningglory (Ipomoea hederacea, IPOHE) velvetleaf (Abutilon theophrasti, ABUTH), pigweed (Amaranthus spp., AMARE), barnyardgrass (Echinochloa crusgalli, ECHCG), giant foxtail (Setaria faberi, SETFA), wild oats (Avena fatua, AVEFA), and blackgrass (Alopecurus myosuroides, ALOMY) were planted in mineral soil (sandy clay loam, 51% sand, 26% silt, 23% clay, 2.8% O.M., pH 7.8) and Metro-mix (Bulk Sak, Inc., Malvern, Ark., USA) for preemergence and postemergence treatments, respectively. Pots receiving preemergence treatments were watered immediately following application. Prior to postemergence treatment, plants were grown in the greenhouse (16 h photoperiod, 27 C) and thinned to a density of 2 to 15 plants pot^−1, depending on species. At the time of postemergence applications, plants were 8-12 days old, 3 to 10 cm in height, and in the 1- to 3-true-leaf stage. Natural light in the greenhouse was supplemented with metal halide lights that provided an average photosynthetic photon flux of 500 μmol m^−2s^−1.
(§2) A sample of sodium methylidene mevalonate was dissolved in 4 mL of distilled water followed by 10 mL of formulation stock “B” (200 mL isopropanol, 20 mL crop oil concentrate, 0.4 g Triton X-155 [Sigma Chemical Co., St. Louis, Mo. 62718], and 78 mL water). This was followed by three 1:1 (v/v) serial dilutions using formulation stock “C” (100 mL isopropanol, 10 mL crop oil concentrate, 0.2 g Triton X-155, 390 mL water, 485 mL acetone and 15 mL DMSO).
(§3) Treatments were made at four different doses (4000, 2000, 1000, and 500 g ha^−1). For preemergence treatments, 1.75 mL of spray solution were applied to the soil surface in each pot using a glass Cornwall syringe fitted with a Teejet SS8001E flat-fan nozzle (Spraying Systems Co., Wheaton, Ill. 60189-7900). For postemergence applications, the foliage of the test plants was sprayed using a DeVilbiss atomizer (DeVilbiss Health Car, Inc., Somerset, Pa. 15501) driven by compressed air at a pressure of 22 kPa. Untreated controls were included.
(§4) Pots were placed in the greenhouse following compound application. Pots from postemergence and preemergence were sub-irrigated and top-watered, respectively, as needed for the duration of the test. Visual injury ratings were taken 9 and 16 days after treatment for postemergence and preemergence applications, respectively, on a 0 to 100 scale where 0 represents no injury and 100 represents complete necrosis.

[2] = test system: blackgrass (Alopecurus myosuroides, ALOMY); assay: General herbicidal evaluation, preemergence; conditions: 16 days after treatment
Excerpt: as §1, §2, §3, §4

[3] = test system: giant foxtail (Setaria faberi, SETFA); assay: General herbicidal evaluation, preemergence; conditions: 16 days after treatment
Excerpt: as §1, §2, §3, §4

[4] = test system: morningglory (Ipomoea hederacea, IPOHE); assay: General herbicidal evaluation, preemergence; conditions: 16 days after treatment
Excerpt: as §1, §2, §3, §4

[5] = test system: pigweed (Amaranthus spp., AMARE); assay: General herbicidal evaluation, preemergence; conditions: 16 days after treatment
Excerpt: as §1, §2, §3, §4

[6] = test system: sunflower (Helianthus annus, HELAN); assay: General herbicidal evaluation, preemergence; conditions: 16 days after treatment
Excerpt: as §1, §2, §3, §4

[7] = test system: velvetleaf (Abutilon theophrasti, ABUTH); assay: General herbicidal evaluation, preemergence; conditions: 16 days after treatment
Excerpt: as §1, §2, §3, §4

[8] = test system: wild oats (Avena fatua, AVEFA); assay: General herbicidal evaluation, preemergence; conditions: 16 days after treatment
Excerpt: as §1, §2, §3, §4

[9] = test system: crabgrass (Digitaria sanguinalis, DIGSA); assay: Synergistic herbicidal activity, foliar track sprayer; conditions: methylidene mevalonate 933 g ae/ha alone, 14 days, 1% crop oil concentrate
Description: (§5) Methylidene mevalonate alone and in combination with nonanoic acid was applied to the foliage of rapidly growing plant material utilizing a track sprayer calibrated to deliver an application volume of 187 L/ha. These treatments were applied to both broadleaf and grass weed species. All treatments contained 1% crop oil concentrate. Assessment of herbicidal activity was performed visually relative to untreated controls after 14 days incubation in the greenhouse. Species abbreviations are as previously defined.

[10] = test system: morningglory (Ipomoea hederacea, IPOHE); assay: as above; conditions: methylidene mevalonate 933 g ae/ha alone, 14 days, 1% crop oil concentrate
Description: as §5

[11] = test system: wild oats (Avena fatua, AVEFA); assay: as above; conditions: methylidene mevalonate 933 g ae/ha alone, 14 days, 1% crop oil concentrate
Description: as §5

C=C(CO)C(C)(O)CC(=O)O (centres unmarked) [methylidene mevalonate, 3-hydroxy-4-(hydroxymethyl)-3-methylpent-4-enoic acid]
10%: Visual Injury (%) ([8]; 4.0 kg ha^−1, AVEFA)
60%: Visual Injury (%) ([6]; 4.0 kg ha^−1, HELAN) | Actual Injury % growth reduction [10]
20%: Visual Injury (%) ([1]; 2.0 kg ha^−1, ECHCG) | Visual Injury (%) ([2]; 2.0 kg ha^−1, ALOMY) | Visual Injury (%) ([3]; 2.0 kg ha^−1, SETFA) | Visual Injury (%) ([4]; 4.0 kg ha^−1, IPOHE) | Visual Injury (%) ([6]; 0.5 kg ha^−1, HELAN) | Visual Injury (%) ([7]; 2.0 kg ha^−1, ABUTH)
40%: Visual Injury (%) ([5]; 4.0 kg ha^−1, AMARE)
35%: Actual Injury % growth reduction [9] | Actual Injury % growth reduction [11]
30%: Visual Injury (%) ([1]; 4.0 kg ha^−1, ECHCG) | Visual Injury (%) ([2]; 4.0 kg ha^−1, ALOMY) | Visual Injury (%) ([3]; 4.0 kg ha^−1, SETFA) | Visual Injury (%) ([5]; 2.0 kg ha^−1, AMARE) | Visual Injury (%) ([6]; 1.0 kg ha^−1, HELAN) | Visual Injury (%) ([6]; 2.0 kg ha^−1, HELAN) | Visual Injury (%) ([7]; 4.0 kg ha^−1, ABUTH)
0%: Visual Injury (%) ([1]; 0.5 kg ha^−1, ECHCG) | Visual Injury (%) ([1]; 1.0 kg ha^−1, ECHCG) | Visual Injury (%) ([2]; 0.5 kg ha^−1, ALOMY) | Visual Injury (%) ([2]; 1.0 kg ha^−1, ALOMY) | Visual Injury (%) ([3]; 0.5 kg ha^−1, SETFA) | Visual Injury (%) ([3]; 1.0 kg ha^−1, SETFA) | Visual Injury (%) ([4]; 0.5 kg ha^−1, IPOHE) | Visual Injury (%) ([4]; 1.0 kg ha^−1, IPOHE) | Visual Injury (%) ([4]; 2.0 kg ha^−1, IPOHE) | Visual Injury (%) ([5]; 0.5 kg ha^−1, AMARE) | Visual Injury (%) ([5]; 1.0 kg ha^−1, AMARE) | Visual Injury (%) ([7]; 0.5 kg ha^−1, ABUTH) | Visual Injury (%) ([7]; 1.0 kg ha^−1, ABUTH) | Visual Injury (%) ([8]; 0.5 kg ha^−1, AVEFA) | Visual Injury (%) ([8]; 1.0 kg ha^−1, AVEFA) | Visual Injury (%) ([8]; 2.0 kg ha^−1, AVEFA)
